Patent publication US20210386829A1, “COMPOSITIONS AND METHODS FOR MODULATING CGRP SIGNALING TO REGULATE INNATE LYMPHOID CELL INFLAMMATORY RESPONSES” (The Broad Institute, Inc., priority 2018, published 2021)
“Also recorded” adds a separate entry of the source.

Tests used:
lung ILCs = assay: CellTrace Violet proliferation assay of sort-purified lung ILCs; format: cell-based, mouse; conditions: 3 days
Experimental: ILC in vitro culture. For in vitro experiments 5,000 ILCs/well were cultured in a 96 well round bottom plate with 20 ng/ml IL-7 (R&D Systems), 200 ng/ml IL-25 (R&D Systems) or 20 ng/ml, 2 ng/ml or 0.2 ng/ml IL-33 (BioLegend) with or without 1 μg/ml Neuromedin U (US Biological). In some cases purified CD90.2^+ lung cells were first labeled with CellTrace Violet (Thermo Fisher Scientific), then sorted as described above, and cultured for 3 days under the indicated conditions.
Proliferation assay. Lung cells were isolated and enriched for CD90.2 cells as described above, followed by labeling with CellTrace Violet (Cat #C34557; Thermo Fisher Scientific) according to manufacturer's instructions and subsequently stained with antibodies. After 3-day culture of sort-purified ILCs with 20 ng/ml IL-7 either alone or in combination with 200 ng/ml IL-33, 100 pM CGRP or 100 nM CGRP followed by staining, expression of CellTrace Violet in live (7AAD−) ILCs was analyzed on a BD LSRFortessa (BD Biosciences).

[1] = test system: IL-33-induced airway inflammation in RAG2 KO mice; assay: IL-33-induced airway inflammation in RAG2 KO mice, intranasal co-administration of CGRP; format: in vivo, mouse; conditions: IL-33+CGRP vs IL-33 alone
Text: Animals. All experiments involving mice were approved by the Institutional Animal Care and Use Committee (IACUC) at Brigham and Women's Hospital. Mice were maintained in the animal facility at Brigham and Women's Hospital under specific pathogen-free conditions with food and water ad libitum and a 12-hour dark/light cycle. Mice were age- and sex-matched for experiments and were randomly assigned to experimental groups. C57BL/6J mice and RAG2 KO mice were purchased from the Jackson Laboratory. CGRP-GFP-hDTR mice were kindly provided by I. Chiu (Harvard Medical School, Boston).
Cytokine-induced airway inflammation. Mice received nasally 500 ng IL-25, 500 ng IL-33, 20 ug NMU or 6.65 ug CGRP diluted in DPBS for three consecutive days. For nasal administration, mice were lightly anesthetized with Isoflurane (Cat #07-893-1389; Patterson Veterinary). For induction of inflammatory ILC2s, mice received intraperitoneally 500 ng IL-25 for three consecutive days. One day after the last treatment, mice were euthanized and perfused with 8 ml cold PBS via the right heart ventricle. After exposure of the trachea, a small incision was made at the top of the trachea and a curved gavage needle was inserted. Lungs were washed with 1.5 ml cold PBS via the needle and the retrieved bronchoalveolar lavage fluid was centrifuged at 1300 rpm for 5 min at 4 C. After centrifugation, the supernatant was frozen at −20° C. and the cell pellet was resuspended in 250 ul complete medium and stored on ice until flow cytometric analysis. The post-caval lung lobe was transferred into 10% buffered formalin and stored at room temperature until paraffin embedding for histological analysis. The other lung lobes were dissociated using the lung dissociation kit (Cat #130-095-927; Miltenyi Biotec) and automated tissue dissociator (gentleMACS; Miltenyi Biotec) as described above with the adjustment that after running program lung_02, the single cell suspension was centrifuged at 1300 rpm for 5 min at 4° C. and 1 ml of the supernatant was frozen at −20° C. Single-cell suspension was resuspended in complete cell culture medium and stored on ice until further processing.
For cell counts, lung cells were transferred into FACS tubes and stained with 7AAD. Precision Count Beads (Cat #424902; BioLegend) were added according to manufacturer's instructions. Cells and beads were acquired on a BD LSRFortessa (BD Biosciences) and cell numbers were calculated based on number of acquired live (7AAD−) cells and number of acquired beads.
For flow cytometric analysis, lung cells were transferred into a 96 well V-bottom plate and stained with surface antibodies for 20 min at 4° C. in the dark. Cells were washed twice with DPBS containing 2% fetal bovine serum and transferred into 1.2 ml tubes for analysis by flow cytometry. For intracellular cytokine staining, cells were incubated in complete cell culture medium with 50 ng/ml phorbol 12-myristate 13-acetate (Sigma-Aldrich), 1 uM ionomycin (Sigma-Aldrich) and GolgiStop (Cat #554724; BD Biosciences) in a humidified incubator at 37° C. and 10% CO2. After 5 hours, cells were transferred into 96 well V-bottom plate, stained with Fixable Viability Dye eFluor 506 (Cat #65-0866-14; Thermo Fisher) and surface antibodies for 20 min at 4° C. in the dark and washed twice with DPBS containing 2% fetal bovine serum. Then, cells were incubated with BD Cytofix/Cytoperm Buffer (Cat #51-2090KZ; BD Biosciences) for 20 min, followed by a wash with BD Perm/Wash Buffer (Cat #51-2091KZ; BD Biosciences). Subsequently, cells were incubated with antibodies targeting intracellular proteins diluted in BD Perm/Wash Buffer for 20 min and after two wash steps, transferred into 1.2 ml tubes for analysis by flow cytometry. […]

In the case of “CGRP: neuropeptide calcitonin gene-related peptide (encoded by Calca), ligand of the Ramp1/Calcrl receptor; given at 100 nM in vitro, 6.65 ug nasally”, the “IL-33-activated ILCs that proliferated” value (lung ILCs; IL-7+IL-33 in the presence of 100 nM CGRP) was “less than 10%”, the “IL-33-induced proliferation of ILCs” value (lung ILCs; IL-33 with 100 pM or 100 nM CGRP vs IL-33 alone) was “inhibits IL-33-induced proliferation in a dose-dependent manner; also recorded: strongly inhibited” and the “Il5 and Il13 transcripts in lung tissue” value [1] was “significantly reduced”. The “concentration of IL-5 and IL-13 protein in lung homogenates and BALF” value [1] was “significantly reduced”, the “eosinophil numbers in lung tissue and BALF” value [1] was “significantly reduced” and the “frequency of IL-5-positive ILCs” value [1] was “no difference”. For the same substance, the “frequency of IL-13-positive ILC2s” value [1] was “significantly lower”, the “total numbers of lung ILCs” value [1] was “marked reduction” and the “frequency of lung ILCs” value ([1]; intranasal, three consecutive days) was “non-significant trend towards a reduced frequency”.
